We go through 23 molecules from patent publication US8076487B2, “Pyridone derivative and herbicide” (Kumiai Chemical Industry Co., Ltd., priority 2006, dated 2011).

Test in all cases: Test Example 1: herbicidal effect by soil application to paddy field
What all share (format): in vivo

The subject of test [1] is early watergrass (Echinochloa oryzicola Vasing). Particulars: for herbicidal effect, Echinochloa oryzicola Vasing: paddy field soil application, active ingredient 1,000 g per 1 hectare, wettable powder added dropwise to water surface the day after sowing, examined on the 21st day after application; for herbicidal effect (index), Echinochloa oryzicola Vasing: soil application to paddy field, rated by standard of Table 34. An excerpt: (§1) Test Example 1 Test on Herbicidal Effect by Soil Application to Paddy Field In a 100 cm2 plastic pot, paddy field soil was filled. After puddling and leveling, seeds of early watergrass (Echinochloa oryzicola […] (Monochoria vaginalis ([…] Japanese bulrush (Scirpus juncoides Roxb.) were sown, and water was filled to be flooded to a water depth of 3 cm. […] Then, on the 21st day after the application to the plants grew in a greenhouse, the herbicidal effect was examined in accordance with a standard shown in Table 34. [table]

Test [2] has as its system Japanese bulrush (Scirpus juncoides Roxb.). Particulars: for herbicidal effect, Scirpus juncoides Roxb.: paddy field soil application, active ingredient 1,000 g per 1 hectare, wettable powder added dropwise to water surface the day after sowing, examined on the 21st day after application; for herbicidal effect (index), Scirpus juncoides Roxb.: soil application to paddy field, rated by standard of Table 34.
Source text: as §1

The subject of test [3] is heartshape false pickerelweed (Monochoria vaginalis (Burm.f.) C.Presl). As to conditions: for herbicidal effect, Monochoria vaginalis (Burm. f.) C. Presl: paddy field soil application, active ingredient 1,000 g per 1 hectare, wettable powder added dropwise to water surface the day after sowing, examined on the 21st day after application; for herbicidal effect (index), Monochoria vaginalis (Burm.f.) C.Presl: soil application to paddy field, rated by standard of Table 34.
Source text: as §1

In the case of `C=CCn1ncc(C(=O)c2ccc(C(F)(F)F)n(C)c2=O)c1O` [IV-225], the “herbicidal effect, Echinochloa oryzicola Vasing” value in test [1] was 5 (90% or more of herbicidal effect and crop phytotoxicity). In addition, in test [2], the “herbicidal effect, Scirpus juncoides Roxb.” value is 5 (90% or more of herbicidal effect and crop phytotoxicity). Besides, the “herbicidal effect, Monochoria vaginalis (Burm. f.) C. Presl” value (shortened to “herbicidal effect, Monochoria vaginalis”) in test [3] is 5 (90% or more of herbicidal effect and crop phytotoxicity).

On to `Cn1c(C(F)(F)F)ccc(C(=O)C2=C(Sc3ccccc3Cl)CCCC2=O)c1=O` [II-11], for which the “herbicidal effect, Echinochloa oryzicola Vasing” value in test [1] is 5 (90% or more of herbicidal effect and crop phytotoxicity). In addition, in test [2], the “herbicidal effect, Scirpus juncoides Roxb.” value was 5 (90% or more of herbicidal effect and crop phytotoxicity). The “herbicidal effect, Monochoria vaginalis” value in test [3] is 5 (90% or more of herbicidal effect and crop phytotoxicity).

Take `Cc1cccc(COc2c(C(=O)c3ccc(C(F)(F)F)n(CC4CCCO4)c3=O)cnn2C)n1` (stereo not drawn) [IV-138]: in test [1], the “herbicidal effect, Echinochloa oryzicola Vasing” value is 5 (90% or more of herbicidal effect and crop phytotoxicity). Also, the “herbicidal effect, Scirpus juncoides Roxb.” value in test [2] is 5 (90% or more of herbicidal effect and crop phytotoxicity). In addition, the “herbicidal effect, Monochoria vaginalis” value in test [3] was 5 (90% or more of herbicidal effect and crop phytotoxicity).

Turning to `Cn1c(C(F)(F)F)ccc(C(=O)C2=C(Sc3cccc(Cl)c3)CCCC2=O)c1=O` [II-12], the “herbicidal effect, Echinochloa oryzicola Vasing” value in test [1] was 5 (90% or more of herbicidal effect and crop phytotoxicity). For the same molecule, in test [2], the “herbicidal effect, Scirpus juncoides Roxb.” value is 5 (90% or more of herbicidal effect and crop phytotoxicity). Further, the “herbicidal effect, Monochoria vaginalis” value in test [3] is 5 (90% or more of herbicidal effect and crop phytotoxicity).

For the molecule `CCCn1ncc(C(=O)c2ccc(C(F)(F)F)n(C)c2=O)c1O` [IV-213], the “herbicidal effect, Echinochloa oryzicola Vasing” value in test [1] is 5 (90% or more of herbicidal effect and crop phytotoxicity). For the same molecule, the “herbicidal effect, Scirpus juncoides Roxb.” value in test [2] is 5 (90% or more of herbicidal effect and crop phytotoxicity). Further, the “herbicidal effect, Monochoria vaginalis” value in test [3] is 5 (90% or more of herbicidal effect and crop phytotoxicity).

As for `Cn1c(C(F)(F)F)ccc(C(=O)C2=C(Sc3ccccc3)CCCC2=O)c1=O` [II-8], in test [1], the “herbicidal effect, Echinochloa oryzicola Vasing” value was 5 (90% or more of herbicidal effect and crop phytotoxicity). In test [2], the “herbicidal effect, Scirpus juncoides Roxb.” value is 5 (90% or more of herbicidal effect and crop phytotoxicity). Besides, the “herbicidal effect, Monochoria vaginalis” value in test [3] is 5 (90% or more of herbicidal effect and crop phytotoxicity).

As for `COCCCn1c(C(F)(F)F)ccc(C(=O)C2=C(Sc3ccccc3)CCCC2=O)c1=O` [II-30], the “herbicidal effect, Echinochloa oryzicola Vasing” value in test [1] was 5 (90% or more of herbicidal effect and crop phytotoxicity). For the same molecule, the “herbicidal effect, Scirpus juncoides Roxb.” value in test [2] was 5 (90% or more of herbicidal effect and crop phytotoxicity). In addition, in test [3], the “herbicidal effect, Monochoria vaginalis” value is 5 (90% or more of herbicidal effect and crop phytotoxicity).

For `COCn1c(C(F)(F)F)ccc(C(=O)C2=C(O)CCCC2=O)c1=O` [I-30], the “herbicidal effect, Echinochloa oryzicola Vasing” value in test [1] was 3 (50 to less than 70% of herbicidal effect and crop phytotoxicity). Also, the “herbicidal effect, Scirpus juncoides Roxb.” value in test [2] was 3 (50 to less than 70% of herbicidal effect and crop phytotoxicity). The “herbicidal effect, Monochoria vaginalis” value in test [3] was 5 (90% or more of herbicidal effect and crop phytotoxicity).

With `CCCCN(CCCC)n1c(C(F)(F)F)ccc(C(=O)C2=C(O)CCCC2=O)c1=O` [I-174], the “herbicidal effect, Echinochloa oryzicola Vasing” value in test [1] was 5 (90% or more of herbicidal effect and crop phytotoxicity). Further, the “herbicidal effect, Scirpus juncoides Roxb.” value in test [2] was 5 (90% or more of herbicidal effect and crop phytotoxicity). For the same molecule, the “herbicidal effect, Monochoria vaginalis” value in test [3] was 5 (90% or more of herbicidal effect and crop phytotoxicity).

For `CCCS(=O)(=O)Oc1c(C(=O)c2ccc(C(F)(F)F)n(Cc3cccc(OC)c3)c2=O)cnn1C` [IV-104], the “herbicidal effect, Echinochloa oryzicola Vasing” value in test [1] was 5 (90% or more of herbicidal effect and crop phytotoxicity). Further, the “herbicidal effect, Scirpus juncoides Roxb.” value in test [2] is 4 (70 to less than 90% of herbicidal effect and crop phytotoxicity). Besides, the “herbicidal effect, Monochoria vaginalis” value in test [3] was 5 (90% or more of herbicidal effect and crop phytotoxicity).

For `CC1CCC(=O)C(C(=O)c2ccc(C(F)(F)F)n(C)c2=O)=C1O` (stereo not drawn) [II-1], the “herbicidal effect, Echinochloa oryzicola Vasing” value in test [1] is 5 (90% or more of herbicidal effect and crop phytotoxicity). In test [2], the “herbicidal effect, Scirpus juncoides Roxb.” value is 5 (90% or more of herbicidal effect and crop phytotoxicity). Also, the “herbicidal effect, Monochoria vaginalis” value in test [3] was 5 (90% or more of herbicidal effect and crop phytotoxicity).

Consider `Cn1ncc(C(=O)c2ccc(C(F)(F)F)n(CC[S+](C)[O-])c2=O)c1O` (stereo not drawn) [IV-52], for which the “herbicidal effect, Echinochloa oryzicola Vasing” value in test [1] is 4 (70 to less than 90% of herbicidal effect and crop phytotoxicity). The “herbicidal effect, Scirpus juncoides Roxb.” value in test [2] was 4 (70 to less than 90% of herbicidal effect and crop phytotoxicity). For the same molecule, the “herbicidal effect, Monochoria vaginalis” value in test [3] is 4 (70 to less than 90% of herbicidal effect and crop phytotoxicity).

Turning to `CCCn1c(C(F)(F)F)c(C)cc(C(=O)C(C#N)=C(O)C2CC2)c1=O` [V-24], in test [1], the “herbicidal effect (index), Echinochloa oryzicola Vasing” value was 5 (90% or more of herbicidal effect and crop phytotoxicity). In test [2], the “herbicidal effect (index), Scirpus juncoides Roxb.” value is 5 (90% or more of herbicidal effect and crop phytotoxicity). For the same molecule, in test [3], the “herbicidal effect (index), Monochoria vaginalis (Burm.f.) C.Presl” value was 5 (90% or more of herbicidal effect and crop phytotoxicity).

On to `CS(=O)(=O)c1ccc(Cn2c(C(F)(F)F)ccc(C(=O)C3=C(O)CCCC3=O)c2=O)cc1` [I-123], for which the “herbicidal effect, Echinochloa oryzicola Vasing” value in test [1] is 5 (90% or more of herbicidal effect and crop phytotoxicity). Also, the “herbicidal effect, Scirpus juncoides Roxb.” value in test [2] was 5 (90% or more of herbicidal effect and crop phytotoxicity). Also, the “herbicidal effect, Monochoria vaginalis” value in test [3] was 5 (90% or more of herbicidal effect and crop phytotoxicity).

With `O=C1CCCC(O)=C1C(=O)c1ccc(C(F)(F)F)n(CS(=O)(=O)C2CCCCC2)c1=O` [I-62], the “herbicidal effect, Echinochloa oryzicola Vasing” value in test [1] was 5 (90% or more of herbicidal effect and crop phytotoxicity). Moreover, the “herbicidal effect, Scirpus juncoides Roxb.” value in test [2] is 4 (70 to less than 90% of herbicidal effect and crop phytotoxicity). In addition, the “herbicidal effect, Monochoria vaginalis” value in test [3] was 5 (90% or more of herbicidal effect and crop phytotoxicity).

`Cc1ccc(C(=O)C2=C(O)CCCC2=O)c(=O)n1-c1cccc(C(F)(F)F)c1` [I-235]: the “herbicidal effect, Echinochloa oryzicola Vasing” value in test [1] is 5 (90% or more of herbicidal effect and crop phytotoxicity). Besides, the “herbicidal effect, Scirpus juncoides Roxb.” value in test [2] is 5 (90% or more of herbicidal effect and crop phytotoxicity). In addition, the “herbicidal effect, Monochoria vaginalis” value in test [3] was 5 (90% or more of herbicidal effect and crop phytotoxicity).

In the case of `CCCS(=O)(=O)Oc1c(C(=O)c2ccc(C(F)(F)F)n(CC(C)OCc3ccccc3)c2=O)cnn1C` (stereo not drawn) [IV-49], the “herbicidal effect, Echinochloa oryzicola Vasing” value in test [1] is 5 (90% or more of herbicidal effect and crop phytotoxicity). Further, in test [2], the “herbicidal effect, Scirpus juncoides Roxb.” value was 3 (50 to less than 70% of herbicidal effect and crop phytotoxicity). Moreover, the “herbicidal effect, Monochoria vaginalis” value in test [3] is 5 (90% or more of herbicidal effect and crop phytotoxicity).

As for `C=CCn1ncc(C(=O)c2ccc(C(F)(F)F)n(C)c2=O)c1OCc1ccccc1` [IV-228], the “herbicidal effect, Echinochloa oryzicola Vasing” value in test [1] was 5 (90% or more of herbicidal effect and crop phytotoxicity). In test [2], the “herbicidal effect, Scirpus juncoides Roxb.” value is 5 (90% or more of herbicidal effect and crop phytotoxicity). For the same molecule, the “herbicidal effect, Monochoria vaginalis” value in test [3] was 5 (90% or more of herbicidal effect and crop phytotoxicity).

With `N#CC(C(=O)c1ccc(C(F)(F)F)n(CC2CCCO2)c1=O)=C(O)C1CC1` (stereo not drawn) [V-26], the “herbicidal effect (index), Echinochloa oryzicola Vasing” value in test [1] was 5 (90% or more of herbicidal effect and crop phytotoxicity). Further, the “herbicidal effect (index), Scirpus juncoides Roxb.” value in test [2] was 4 (70 to less than 90% of herbicidal effect and crop phytotoxicity). For the same molecule, in test [3], the “herbicidal effect (index), Monochoria vaginalis (Burm.f.) C.Presl” value was 5 (90% or more of herbicidal effect and crop phytotoxicity).

As for `CCCS(=O)(=O)Oc1c(C(=O)c2ccc(C(F)(F)F)n(CC[S+](C)[O-])c2=O)cnn1C` (stereo not drawn) [IV-53], the “herbicidal effect, Echinochloa oryzicola Vasing” value in test [1] was 4 (70 to less than 90% of herbicidal effect and crop phytotoxicity). Besides, the “herbicidal effect, Scirpus juncoides Roxb.” value in test [2] is 4 (70 to less than 90% of herbicidal effect and crop phytotoxicity). The “herbicidal effect, Monochoria vaginalis” value in test [3] was 4 (70 to less than 90% of herbicidal effect and crop phytotoxicity).

With `Cn1c(C(F)(F)F)ccc(C(=O)C2=C(Sc3ccc(Cl)cc3)CCCC2=O)c1=O` [II-13], in test [1], the “herbicidal effect, Echinochloa oryzicola Vasing” value is 5 (90% or more of herbicidal effect and crop phytotoxicity). In addition, the “herbicidal effect, Scirpus juncoides Roxb.” value in test [2] was 5 (90% or more of herbicidal effect and crop phytotoxicity). In addition, the “herbicidal effect, Monochoria vaginalis” value in test [3] was 5 (90% or more of herbicidal effect and crop phytotoxicity).

Consider `Cn1c(C(F)(F)F)ccc(C(=O)C2=C(Sc3c(Cl)c(Cl)c(Cl)c(Cl)c3Cl)CCCC2=O)c1=O` [II-16], for which the “herbicidal effect, Echinochloa oryzicola Vasing” value in test [1] was 5 (90% or more of herbicidal effect and crop phytotoxicity). For the same molecule, in test [2], the “herbicidal effect, Scirpus juncoides Roxb.” value is 5 (90% or more of herbicidal effect and crop phytotoxicity). The “herbicidal effect, Monochoria vaginalis” value in test [3] is 5 (90% or more of herbicidal effect and crop phytotoxicity).

As for `Cn1c(C(F)(F)F)ccc(C(=O)C2=C(Sc3ccccc3)CC(C)(C)CC2=O)c1=O` [II-19], the “herbicidal effect, Echinochloa oryzicola Vasing” value in test [1] is 5 (90% or more of herbicidal effect and crop phytotoxicity). The “herbicidal effect, Scirpus juncoides Roxb.” value in test [2] was 5 (90% or more of herbicidal effect and crop phytotoxicity). Further, the “herbicidal effect, Monochoria vaginalis” value in test [3] was 5 (90% or more of herbicidal effect and crop phytotoxicity).
